These results are taken from ChEMBL document CHEMBL1687786, “Diversity of staphylococcal cassette chromosome mec elements in predominant methicillin-resistant Staphylococcus aureus clones in a small geographic area” (2010).

Holding throughout (type): functional
Assay [1] relates to Staphylococcus aureus. Briefly: Antimicrobial activity against Staphylococcus aureus clone 4-4 harboring staphylococcal cassette chromosome mec element type 5 assessed as percent susceptible isolates by kirby-bauer method.
For assay [2], the system named is Staphylococcus aureus. Briefly: Antimicrobial activity against Staphylococcus aureus clone 4-4 harboring staphylococcal cassette chromosome mec element type 2 assessed as percent susceptible isolates by kirby-bauer method.
Assay [3] relates to Staphylococcus aureus. Briefly: Antimicrobial activity against Staphylococcus aureus clone 3-3 harboring staphylococcal cassette chromosome mec element type U1 assessed as percent susceptible isolates by kirby-bauer method.
Assay [4] concerns Staphylococcus aureus. The experiment in a line: Antimicrobial activity against Staphylococcus aureus clone 3-3 harboring staphylococcal cassette chromosome mec element type 2 assessed as percent susceptible isolates by kirby-bauer method.
Assay [5] concerns Staphylococcus aureus. Briefly: Antimicrobial activity against Staphylococcus aureus clone 3-3 harboring staphylococcal cassette chromosome mec element type U6 assessed as percent susceptible isolates by kirby-bauer method.
Assay [6] relates to Staphylococcus aureus. The experiment in a line: Antimicrobial activity against Staphylococcus aureus clone 4-4 harboring staphylococcal cassette chromosome mec element type U3 assessed as percent susceptible isolates by kirby-bauer method.
Assay [7] has as its system Staphylococcus aureus. Briefly: Antimicrobial activity against Staphylococcus aureus clone 2-2 harboring staphylococcal cassette chromosome mec element type U3 assessed as percent susceptible isolates by kirby-bauer method.
In assay [8] the test system is Staphylococcus aureus. Briefly: Antimicrobial activity against Staphylococcus aureus clone 2-2 harboring staphylococcal cassette chromosome mec element type 2 assessed as percent susceptible isolates by kirby-bauer method.
The test system of assay [9] is Staphylococcus aureus. The experiment in a line: Antimicrobial activity against Staphylococcus aureus clone 2-2 harboring staphylococcal cassette chromosome mec element type U5 assessed as percent susceptible isolates by kirby-bauer method.
The subject of assay [10] is Staphylococcus aureus. The experiment in a line: Antimicrobial activity against Staphylococcus aureus clone 2-2 harboring staphylococcal cassette chromosome mec element type 5 assessed as percent susceptible isolates by kirby-bauer method.
Assay [11] concerns Staphylococcus aureus. The experiment in a line: Antimicrobial activity against Staphylococcus aureus clone 1-1 harboring staphylococcal cassette chromosome mec element type 5 assessed as percent susceptible isolates by kirby-bauer method.
The test system of assay [12] is Staphylococcus aureus. Briefly: Antimicrobial activity against Staphylococcus aureus clone 2-2 harboring staphylococcal cassette chromosome mec element type 6 assessed as percent susceptible isolates by kirby-bauer method.
Assay [13] has as its system Staphylococcus aureus. The experiment in a line: Antimicrobial activity against Staphylococcus aureus clone 2-2 harboring staphylococcal cassette chromosome mec element type 4 assessed as percent susceptible isolates by kirby-bauer method.
In assay [14] the test system is Staphylococcus aureus. Briefly: Antimicrobial activity against Staphylococcus aureus clone 3-3 harboring staphylococcal cassette chromosome mec element type 1 assessed as percent susceptible isolates by kirby-bauer method.
Assay [15] has as its system Staphylococcus aureus. The experiment in a line: Antimicrobial activity against Staphylococcus aureus clone 2-2 harboring staphylococcal cassette chromosome mec element type 1 assessed as percent susceptible isolates by kirby-bauer method.
The subject of assay [16] is Staphylococcus aureus. Briefly: Antimicrobial activity against Staphylococcus aureus clone 4-4 harboring staphylococcal cassette chromosome mec element type 1 assessed as percent susceptible isolates by kirby-bauer method.
For assay [17], the system named is Staphylococcus aureus. Briefly: Antimicrobial activity against Staphylococcus aureus clone 4-4 harboring staphylococcal cassette chromosome mec element type 4 assessed as percent susceptible isolates by kirby-bauer method.
Assay [18] has as its system Staphylococcus aureus. The experiment in a line: Antimicrobial activity against Staphylococcus aureus clone 1-1 harboring staphylococcal cassette chromosome mec element type U assessed as percent susceptible isolates by kirby-bauer method.
The subject of assay [19] is Staphylococcus aureus. Briefly: Antimicrobial activity against Staphylococcus aureus clone 3-3 harboring staphylococcal cassette chromosome mec element type 6 assessed as percent susceptible isolates by kirby-bauer method.
Assay [20] deals with Staphylococcus aureus. Briefly: Antimicrobial activity against Staphylococcus aureus clone 3-3 harboring staphylococcal cassette chromosome mec element type 4 assessed as percent susceptible isolates by kirby-bauer method.
The test system of assay [21] is Staphylococcus aureus. Briefly: Antimicrobial activity against Staphylococcus aureus clone 1-1 harboring staphylococcal cassette chromosome mec element type 4 assessed as percent susceptible isolates by kirby-bauer method.
Assay [22] deals with Staphylococcus aureus. The experiment in a line: Antimicrobial activity against Staphylococcus aureus clone 3-3 harboring staphylococcal cassette chromosome mec element type U8 assessed as percent susceptible isolates by kirby-bauer method.

Take `CO/N=C(\C(=O)N[C@@H]1C(=O)N2C(C(=O)O)=C(CSc3nc(=O)c(O)nn3C)CS[C@H]12)c1csc(N)n1` [CEFTRIAXONE]: the Activity in assay [1], in [2], in assay [3], in assay [4], in assay [5] and in assay [6] was 0% throughout. Also, the Activity stood at 0% in assay [7]; 0% in [8]; 0% in assay [9]; 11% in assay [10]; 0% in assay [11]; 0% in [12]. For the same molecule, the Activity in assay [13] worked out at 0%; in assay [14], 0%; in [15], 11%; in assay [16] it was 0%; in assay [17], 0%; in assay [18], 0%. For the same molecule, the Activity in assay [19] turned out to be 0%; in [20], 0%; in assay [21], 2%.

In the case of `CCC[C@@H]1C[C@@H](C(=O)N[C@@H]([C@H]2O[C@H](SC)[C@H](O)[C@@H](O)[C@H]2O)[C@H](C)Cl)N(C)C1` [CLINDAMYCIN], the Activity in [1] was found to be 100%; in assay [2], 0%; in [3], 100%; in assay [5], 50%; in assay [6] it was 100%; in assay [7], 100%. The Activity in assay [22] worked out at 95%; in [8] it was 38%; in assay [9] it was 100%; in [10], 89%; in assay [11], 100%; in assay [12], 100%. Besides, the Activity in assay [13] was 56%; in [14], 0%; in assay [15], 89%; in assay [16] it was 1%; in assay [18], 100%; in assay [19], 100%. The figures for the Activity in assay [20] and in assay [21] were 79% and 98%, respectively.

As for `CC[C@H]1OC(=O)[C@H](C)[C@@H](O[C@H]2C[C@@](C)(OC)[C@@H](O)[C@H](C)O2)[C@H](C)[C@@H](O[C@@H]2O[C@H](C)C[C@H](N(C)C)[C@H]2O)[C@](C)(O)C[C@@H](C)C(=O)[C@H](C)[C@@H](O)[C@]1(C)O` [ERYTHROMYCIN], the Activity in assay [1] was 100%; in [2], 0%; in assay [3], 100%; in [5] it was 50%; in assay [6], 0%; in assay [7], 100%. Further, the Activity in assay [22] turned out to be 98%; in [8], 1%; in [9], 0%; in [10], 89%; in assay [11], 100%; in [13], 39%. The Activity came out at 0% in [14]; 67% in assay [15]; 1% in assay [16]; 100% in assay [18]; 100% in assay [19]; 98% in assay [21].

For `CC(=O)O[C@H]1C[C@@]2(C)[C@@H](C[C@@H](O)[C@H]3[C@@]4(C)CC[C@@H](O)[C@@H](C)[C@@H]4CC[C@@]32C)/C1=C(\CCC=C(C)C)C(=O)O` [FUSIDIC ACID], the Activity in [1] was 50%; in assay [2], 100%; in [5] it was 50%; in assay [6] it was 100%; in [7] it was 100%; in assay [22], 100%. Also, the Activity in assay [8] is 98%; in assay [9] it was 100%; in assay [10], 100%; in assay [11], 100%; in assay [12] it was 100%; in assay [13] it was 100%. Besides, the Activity came to 0% in assay [14]; 0% in assay [15]; 99% in assay [16]; 100% in [17]; 0% in [18]; 0% in assay [19]. For the same molecule, the Activity came to 96% in assay [20] and 83% in assay [21].

`CO[C@H]1/C=C/O[C@@]2(C)Oc3c(C)c(O)c4c(O)c(c(/C=N/N5CCN(C)CC5)c(O)c4c3C2=O)NC(=O)/C(C)=C\C=C\[C@H](C)[C@H](O)[C@@H](C)[C@@H](O)[C@@H](C)[C@H](OC(C)=O)[C@@H]1C` [RIFAMPIN]: the Activity in assay [1], in [2], in assay [3], in [4], in [5] and in assay [6] was 100% throughout. For the same molecule, the Activity in [7], in [22], in [8], in assay [9], in assay [10] and in assay [11] was 100% throughout. The Activity in assay [12] is 100%; in [13] it was 94%; in assay [14] it was 100%; in [15], 100%; in assay [16], 96%; in [17], 100%. The Activity in assay [18], in [19], in assay [20] and in assay [21] was 100% in each case.

For GENTAMICIN, the Activity in assay [1] came out at 100%; in [2], 3%; in [3] it was 100%; in assay [4], 100%; in assay [5], 100%; in assay [6], 100%. Moreover, the Activity in [7] stood at 100%; in [22] it was 100%; in assay [8], 100%; in assay [9], 100%; in assay [10], 0%; in assay [11], 100%. The Activity in assay [12] turned out to be 100%; in assay [13], 94%; in assay [14], 97%; in assay [15] it was 100%; in assay [16], 95%; in assay [17], 100%. Further, the Activity in assay [18] is 100%; in assay [19], 100%; in assay [20], 100%; in assay [21] it was 98%.
